Reference: ChEMBL document CHEMBL3797121, “Novel nucleoside-based antimalarial compounds” (Bioorg Med Chem Lett, 2016)

Assays:
[1] = system: Plasmodium falciparum; experiment: Antimalarial activity against erythrocytic stage of Plasmodium falciparum K1 after 18 hrs by [3H]-hypoxanthine incorporation assay; assay type: functional, organism-based
[2] = Selectivity index, ratio of IC50 for rat L6 cells to IC50 for erythrocytic stage of Plasmodium falciparum K1; assay type: toxicity, cell-based; settings: read-out: Ratio IC50
[3] = system: L6; experiment: Cytotoxicity against rat L6 cells; assay type: cell-based

Row | Structure (SMILES) | IC50 [1] | selectivity ratio [2] | IC50 [3]
1 | CNc1nc(C#N)nc2c1ncn2[C@@H]1O[C@H](C)[C@@H](O)[C@H]1O | 31.2 µM | 3 | 85 µM
2 | C[C@H]1O[C@@H](n2cnc3c(N)nc(F)nc32)[C@H](O)[C@@H]1O | 1 µM | 2 | 2.1 µM
3 | CNc1nc(F)nc2c1ncn2[C@@H]1O[C@H](C)[C@@H](O)[C@H]1O | 11.5 µM | 21 | 236 µM
4 | C[C@H]1O[C@@H](n2cnc3c(N)nc(N)nc32)[C@H](O)[C@@H]1O | 15.6 µM | 22 | 338 µM
5 | CCN(CC)CCCC(C)Nc1ccnc2cc(Cl)ccc12 (centres undefined) [CHLOROQUINE] |  |  | 120 µM
6 | C[C@H]1O[C@@H](n2cnc3c(N)nc(Cl)nc32)[C@H](O)[C@@H]1O | 17.5 µM | 8 | 147 µM
7 | C[C@H]1O[C@@H](n2cnc3c(N)nc(I)nc32)[C@H](O)[C@@H]1O | 55.9 µM | 2 | 110 µM
8 | CNc1ncnc2c1ncn2[C@@H]1O[C@H](C)[C@@H](O)[C@H]1O | 9.01 µM | 30 | 266 µM
9 | C[C@H]1O[C@@H](n2cnc3c(N)nc(C#N)nc32)[C@H](O)[C@@H]1O | 33.5 µM | 5 | 177 µM
10 | C[C@H]1O[C@@H](n2cnc3c(N)nc(N=[N+]=[N-])nc32)[C@H](O)[C@@H]1O | 108 µM | 2 | 181 µM
11 | C[C@H]1O[C@@H](n2cnc3c(N)nc(NN)nc32)[C@H](O)[C@@H]1O | 42 µM | 4 | 188 µM
12 | CNc1nc(I)nc2c1ncn2[C@@H]1O[C@H](C)[C@@H](O)[C@H]1O | 64.9 µM | 2 | 137 µM
